Measurements published in patent US9814758B2, “Inhibitors of apoptosis and uses thereof” (CENTRE NATIONAL DE LA RECHERCHE SCIENTIFIQUE-CNRS, priority 2010, dated 2017).
No end group written: not given here.

Legend:
C2C12 cells = assay: STS-induced DNA fragmentation (Cell Death detection ELISA PLUS) in C2C12 cells; type: cell-based, mouse; settings: murine C2C12 (model for muscle cells); FIG. 5A
Protocol: FIG. 5: In vitro evaluation of the anti-apoptotic activity of CPPs and CPP-conjugates. Workflow and quantitation of DNA fragmentation in (A) C2C12 cells, (B) primary cardiomyocytes, (C) H9c2 cells and (D) NG108-15 cells. Data were normalized to 100% STS. Data shown are the means±SEM, with n≧5. Cells were seeded in 24-well plates and grown overnight. The next day, the cells were incubated with STS alone or with STS+1 μM peptide (in OPTI-MEM) (OPTI-MEM® is a modification of Eagle's Minimum Essential Media, buffered with HEPES and sodium bicarbonate, and supplemented with hypoxanthine, thymidine, sodium pyruvate, L-glutamine, trace elements, and growth factors) (STS concentration and incubation time for each cells are given in the figure). […] Following the regeneration phase, the cells were lyzed and DNA fragmentation was detected according to manufacturer's instructions (Cell Death detection ELISA^PLUS kit—Roche Diagnostics). […]
Thereafter, the capacity of these peptides to inhibit apoptosis induced by staurosporine was evaluated. Apoptosis was determined using the Cell Death detection ELISA^PLUS kit (Roche) measuring the DNA fragmentation.
The anti-apoptotic effects of the peptides were also analyzed in murine NG118-15 (model for neuronal cells) (FIG. 5D), in murine C2C12 (model for muscle cells) (FIG. 5A) and in rat H9c2 (model for cardiac cells) (FIG. 5C). […]

[1] = target: T1, His-tagged intracellular region of Fas receptor (Homo sapiens, UniProt P25445); assay: SPOT peptide array, enzyme-linked blot with His-tagged Fas; type: binding; settings: Fas 10 μg/ml; anti-His/anti-mouse-HRP
T1 construct: His-tagged intracellular region of Fas receptor [10 μg/ml]; purchased Sigma
T1 sequence (P25445 191-335 limits assumed): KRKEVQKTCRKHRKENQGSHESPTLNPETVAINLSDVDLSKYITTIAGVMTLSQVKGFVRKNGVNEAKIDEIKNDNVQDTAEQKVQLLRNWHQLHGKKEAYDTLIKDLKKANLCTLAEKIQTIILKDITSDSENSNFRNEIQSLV
Protocol: FIG. 1: Determination of the DAXX epitope by SPOT synthesis. (A) The amino acid sequence of DAXX was dissected in overlapping peptide arrays (pepscan; 15 mer peptides with a shift of 3 amino acids) and analyzed in enzyme-linked blot. […] Incubation conditions: His-tagged intracellular region of Fas receptor [10 μg/ml]; antibodies: anti-His-(mouse) (Sigma H1029; 1:6,000)/anti-mouse-HRP (Calbiochem 401207; 1:2,000), exposure time: 1 minute. (B) Alignment of the human DAXX sequence comprising the 16-mer KKSRKEKKQTGSGPLG (=DAXXp of SEQ ID NO: 5) with the DAXX sequences of other species (mouse, rat, dog (CANFA) and green monkey (CHLAE)).
FIG. 2: Determination of the optimal length of the DAXX epitope (=DAXXp) by SPOT synthesis. (A) The DAXXp-211 and DAXXp-209 peptides (of SEQ ID NO: 2 and SEQ ID NO: 3, respectively) were successively shortened by one amino acid residue at the N-terminus, at the C-terminus and both at the N- and the C-termini, and analyzed using enzyme-linked blot. […] Incubation conditions: His-tagged intracellular region of Fas receptor [10 μg/ml]; antibodies: anti-His-(mouse) (Sigma H1029; 1:6,000)/anti-mouse-HRP (Calbiochem 401207; 1:2,000), exposure time: 1 minute. (B) Alignment of both peptide sequences DAXXp-211 and DAXXp-209; corresponding to the brightest spots, to determine the optimal DAXX peptide sequence.
FIG. 8: Determination of FADDp15 and its anti-apoptotic effect in cardiomyocytes. (A) The protein sequences of FADD were dissected in overlapping peptide arrays (pepscan; 15 mer peptides with a shift of 3 amino acids) and analyzed using enzyme-linked blot. […] (B) The peptide sequence of FADDp-11 (=FADDp15=SEQ ID NO: 9) was successively shortened by one amino acid residue at the C-terminus, the N-terminus, or at both the C-terminus and the N-terminus, and analyzed using enzyme-linked blot. […] The shortest FADD epitope (a 9-mer with sequence KRKLERVQS (=FADDp=SEQ ID NO: 12)) corresponded to spot No. 24. Incubation conditions: His-tagged intracellular region of Fas receptor [10 μg/ml]; antibodies: anti-His-(mouse) (Sigma H1029; 1:6,000)/anti-mouse-HRP (Calbiochem 401207; 1:2,000), exposure time: 1 minute.
The peptides were synthesized on N-modified CAPE-membranes (Bhargava et al, Mol. Recognit, 2002, 15: 145) and prepared by a MultiPep SPOT-robot (INTAVIS Bioanalytical Instruments AG, Cologne, Germany). Array design was performed with the aid of the in-house software LISA 1.71. The synthesis started with spot definition using a standard protocol [Frank, Tetrahedron, 1992, 48: 9217), followed by the coupling of a solution of Fmoc-cysteine-(Trt)-Opfp (0.3M) in N-methylpyrolidone (NMP) and Fmoc-alanine-Opfp (double coupling, 15 min reaction each). After Fmoc cleavage with piperidine in DMF (20%), 4-hydroxymethylphenoxyacetic acid (HMPA) dissolved in dimethylformamide (DMF, 0.6M solution) and activated with EEDQ (1.1 equiv) was added, and samples were directly spotted on the membrane (4× coupling, 15 min reaction each). The membrane was acetylated with acetic anhydride in DMF (2%), washed with DMF (5×3 min), ethanol (2×3 min), and diethyl ether (2×3 min), and finally air dried. Solutions of Fmoc-amino acid-OH (0.4M) activated with 1,1′-carbonyldiimidazole (CDI, 3 equiv) in DMF were spotted on the membrane (4× coupling, 15 min reaction time each). Proline, tyrosine, and glutamine were activated with 1,1′-carbonyldi(1,2,4-triazole) (CDT). The Fmoc group was removed from the spots, and the peptide sequences were completed using the standard SPOT synthesis protocol (Frank, Tetrahedron, 1992, 48: 9217) followed by a N-terminal tag with β-alanine.
The primary sequence of the DAXX protein (SEQ ID NO: 1) was dissected in overlapping 15 mer peptides (3 amino acids shift) and all the peptides (243 peptides) were synthesized on cellulose membrane by SPOT synthesis as described above. The peptide library was incubated with the His-tagged intra-cellular region of the Fas receptor (Sigma). […]

Substance	reduction in DNA fragmentation (C2C12 cells)	interaction with the Fas receptor / signal intensity of the spot [1]
GRKKRRQRRRPPQKKSRKEKKQTGSGPLG-NH2 [Tat-DAXXp, GRKKRRQRRRPPQ-KKSRKEKKQTGSGPLG-NH2]	24%	
KKSRKEKKQTGSGPLG-NH2 [DAXXp, KKSRKEKKQTGSGPLG-NH2]		interact with the Fas receptor
